The text below walks through data of patent publication US11247965B2 (VenatoRx Pharmaceuticals, Inc., priority 2017, dated 2022).

The subject of data set [1] is HBV replication in HepAD38 cells. As to the kind of experiment: Anti-HBV activity in HepAD38 cells, extracellular HBV DNA by QPCR. It is filed as cell-based, HBV (genotype D, serotype ayw). Particulars: Hepatitis B virus, HePAD38, 168 h, read-out: Anti-HBV EC50, HepAD38 cells, extracellular HBV DNA by QPCR, 7 days of incubation. In a few lines:
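Seven-day compound exposure (30 μM down to 10 nM, half-log steps) after tetracycline withdrawal induced HBV replication in HepAD38 cells. Extracellular viral DNA measured by QPCR (copies/mL via standard curve), normalised to DMSO wells; EC50 from 4-parameter non-linear regression.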

Data set [2] is described as follows: In vitro cytotoxicity, MTT cell viability assay in HepG2 cells. It is filed as cell-based. Particulars: human, Cytotoxicity CC50. In a few lines: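 Parental HepG2 cells in EMEM + 10% FBS were exposed to compounds (8 half-log dilutions, 30 μM to 1.0 nM) for 7 days at 37 °C, 5% CO2. MTT was then added for 3-4 h, formazan dissolved in DMSO and absorbance read at 492 nm; CC50 came from 4-parameter fits against vehicle controls.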
Background: Formazan colour is commonly taken as a measure of viable cells.

Molecules are shown by their SMILES.

In the case of `Cc1cc(NC(=O)c2ccc(F)c(C(F)(F)C(=O)N3[C@@H]4COC[C@H]3CN(C(=O)OC(C)(C)C)C4)c2)ccc1F` [Example 209, tert-butyl (1R,5S)-9-(2,2-difluoro-2-(2-fluoro-5-((4-fluoro-3-methylphenyl)carbamoyl)phenyl)acetyl)-3-oxa-7,9-diazabicyclo[3.3.1]nonane-7-carboxylate], the EC50 in data set [1] is less than 5 µM. This molecule also displayed a CC50 at 7 days in data set [2] of 5 to 30 µM.

Consider `O=C(Nc1ccc(F)c(Br)c1)c1ccc(F)c(C(F)(F)C(=O)N2CCC(O)C(F)(F)C2)c1` (centres unmarked) [Example 175, N-(3-bromo-4-fluorophenyl)-3-(2-(3,3-difluoro-4-hydroxypiperidin-1-yl)-1,1-difluoro-2-oxoethyl)-4-fluorobenzamide], for which the EC50 in data set [1] is less than 5 µM. In data set [2], this molecule displayed a CC50 at 7 days of 5 to 30 µM.

As for `Cc1cc(NC(=O)c2ccc(F)c(C(F)(F)C(=O)N3CCc4nc(N)sc4C3)n2)ccc1F` [Example 303, 6-(2-(2-amino-6,7-dihydrothiazolo[5,4-c]pyridin-5(4H)-yl)-1,1-difluoro-2-oxoethyl)-5-fluoro-N-(4-fluoro-3-methylphenyl)picolinamide], the EC50 in data set [1] was less than 5 µM. For the same molecule, the 50% cytotoxic concentration (CC50) at 7 days in data set [2] lay in the range of 5 to 30 µM.

As for `Cc1cc(NC(=O)c2cc(C(F)(F)C(=O)NC(C)C(F)(F)F)n(C)c2)ccc1F` (centres unmarked) [Example 111, 5-(1,1-difluoro-2-oxo-2-((1,1,1-trifluoropropan-2-yl)amino)ethyl)-N-(4-fluoro-3-methylphenyl)-1-methyl-1H-pyrrole-3-carboxamide], in data set [1], the EC50 was less than 5 µM. The CC50 at 7 days in data set [2] was more than 30 µM.

On to `CO[C@H]1CC2CC[C@H](C1)N2C(=O)C(F)(F)c1cc(C(=O)Nc2ccc(F)c(C)c2)ccc1F` [Example 277, 3-(1,1-difluoro-2-((1R,3s,5S)-3-methoxy-8-azabicyclo[3.2.1]octan-8-yl)-2-oxoethyl)-4-fluoro-N-(4-fluoro-3-methylphenyl)benzamide], for which, in data set [1], the concentration for a half-maximal effect (EC50) is less than 5 µM. Further, in data set [2], the CC50 at 7 days is 5 to 30 µM.

In the case of `Cc1cc(NC(=O)c2ccc(F)c(C(F)(F)C(=O)N3CCC(F)(F)CC3)c2)ccc1F` [Example 278, 3-(2-(4,4-difluoropiperidin-1-yl)-1,1-difluoro-2-oxoethyl)-4-fluoro-N-(4-fluoro-3-methylphenyl)benzamide], in data set [1], the EC50 lay in the range of 5 to 30 µM. In data set [2], this molecule returned a cytotoxic concentration (CC50) at 7 days of more than 30 µM.

For the molecule `Cc1cc(NC(=O)c2ccc(F)c(C(F)(F)C(=O)NC34CCC(O)(CC3)C4)c2)ccc1F` [Example 254, 3-(1,1-difluoro-2-((4-hydroxybicyclo[2.2.1]heptan-1-yl)amino)-2-oxoethyl)-4-fluoro-N-(4-fluoro-3-methylphenyl)benzamide], the EC50 in data set [1] lay within 5 to 30 µM. Further, the half-maximal cytotoxic concentration (CC50) at 7 days in data set [2] is more than 30 µM.

Consider `O=C(Nc1cc(F)c(F)c(F)c1)c1ccc(F)c(C(F)(F)C(=O)N2CCC(O)CC2)c1` [Example 86, 3-(1,1-difluoro-2-(4-hydroxypiperidin-1-yl)-2-oxoethyl)-4-fluoro-N-(3,4,5-trifluorophenyl)benzamide], for which the half-maximal effective concentration (EC50) in data set [1] is less than 5 µM. In data set [2], this molecule yielded a CC50 at 7 days of 5 to 30 µM.

Turning to `Cc1cc(NC(=O)c2ccc(F)c(C(F)(F)C(=O)N3CCC[C@H]3B(O)O)c2)ccc1F` [Example 153, (R)-(1-(2,2-difluoro-2-(2-fluoro-5-((4-fluoro-3-methylphenyl)carbamoyl)phenyl)acetyl)pyrrolidin-2-yl)boronic acid], the 50% effective concentration (EC50) in data set [1] was less than 5 µM. The CC50 at 7 days in data set [2] is more than 30 µM.

With `O=C(Nc1ccc(F)c(F)c1)c1ccc(F)c(C(F)(F)C(=O)NC2CCCC2)c1` [Example 20, 3-(2-(cyclopentylamino)-1,1-difluoro-2-oxoethyl)-N-(3,4-difluorophenyl)-4-fluorobenzamide], in data set [1], the EC50 lay within 5 to 30 µM. For the same molecule, the CC50 at 7 days in data set [2] lay in the range of 5 to 30 µM.

In the case of `COC(=O)N[C@@H]1C[C@H]2COC[C@@H](C1)N2C(=O)C(F)(F)c1cc(C(=O)Nc2ccc(F)c(C)c2)ccc1F` [Example 307, methyl ((1R,5S,7r)-9-(2,2-difluoro-2-(2-fluoro-5-((4-fluoro-3-methylphenyl)carbamoyl)phenyl)acetyl)-3-oxa-9-azabicyclo[3.3.1]nonan-7-yl)carbamate], the 50% effective concentration (EC50) in data set [1] was less than 5 µM. Also, in data set [2], the CC50 at 7 days was 5 to 30 µM.

Regarding `Cc1cc(NC(=O)c2ccc(F)c(C(F)(F)C(=O)N3C4CC[C@@H]3C[C@H](O)C4)c2)cc(F)c1F` [Example 249, 3-(1,1-difluoro-2-((1R,3r,5S)-3-hydroxy-8-azabicyclo[3.2.1]octan-8-yl)-2-oxoethyl)-N-(3,4-difluoro-5-methylphenyl)-4-fluorobenzamide], the EC50 in data set [1] is less than 5 µM. Further, the CC50 at 7 days in data set [2] is 5 to 30 µM.

With `CC(=O)N1[C@H](C)CN(C(=O)C(F)(F)c2cc(C(=O)Nc3ccc(F)c(C)c3)ccc2F)C[C@@H]1C` [Example 295, 3-(2-((3R,5S)-4-acetyl-3,5-dimethylpiperazin-1-yl)-1,1-difluoro-2-oxoethyl)-4-fluoro-N-(4-fluoro-3-methylphenyl)benzamide], the half-maximal effective concentration (EC50) in data set [1] was less than 5 µM. This molecule also displayed a CC50 at 7 days in data set [2] of 5 to 30 µM.

Regarding `Cc1cc(NC(=O)c2ccc(F)c(C(F)(F)C(=O)N[C@@H]3CCOC3=O)c2)ccc1F` [Example 84, (R)-3-(1,1-difluoro-2-oxo-2-((2-oxotetrahydrofuran-3-yl)amino)ethyl)-4-fluoro-N-(4-fluoro-3-methylphenyl)benzamide], in data set [1], the EC50 was more than 30 µM. The CC50 at 7 days in data set [2] was more than 30 µM.

In the case of `Cc1cc(NC(=O)c2ccc(F)c(C(F)(F)C(=O)N3C4CC[C@@H]3C[C@@H](C(=O)NCCO)C4)c2)ccc1F` [Example 258, (1R,3s,5S)-8-(2,2-difluoro-2-(2-fluoro-5-((4-fluoro-3-methylphenyl)carbamoyl)phenyl)acetyl)-N-(2-hydroxyethyl)-8-azabicyclo[3.2.1]octane-3-carboxamide], the 50% effective concentration (EC50) in data set [1] is less than 5 µM. This molecule returned a CC50 at 7 days in data set [2] of more than 30 µM.

In the case of `Cc1cc(NC(=O)c2ccnc(C(F)(F)C(=O)N3C4CC[C@@H]3C[C@@H](C(=O)O)C4)c2)ccc1F` [Example 244, (1R,3s,5S)-8-(2,2-difluoro-2-(4-((4-fluoro-3-methylphenyl)carbamoyl)pyridin-2-yl)acetyl)-8-azabicyclo[3.2.1]octane-3-carboxylic acid], in data set [1], the EC50 was in the range of 5 to 30 µM. In data set [2], the CC50 at 7 days lay within 5 to 30 µM.

Consider `N#Cc1cc(NC(=O)c2ccc(F)c(C(F)(F)C(=O)N3[C@@H]4CC[C@H]3C[C@H](O)C4)c2)ccc1F` [Example 193, N-(3-cyano-4-fluorophenyl)-3-(1,1-difluoro-2-((1R,3s,5S)-3-hydroxy-8-azabicyclo[3.2.1]octan-8-yl)-2-oxoethyl)-4-fluorobenzamide], for which the EC50 in data set [1] is less than 5 µM. In data set [2], this molecule returned a CC50 at 7 days of 5 to 30 µM.

As for `Cc1cc(NC(=O)c2cccc(C(F)(F)C(=O)N3CCC(O)CC3)c2)ccc1F` [Example 14, 3-(1,1-difluoro-2-(4-hydroxypiperidin-1-yl)-2-oxoethyl)-N-(4-fluoro-3-methylphenyl)benzamide], the EC50 in data set [1] was less than 5 µM. The half-maximal cytotoxic concentration (CC50) at 7 days in data set [2] fell in the range of 5 to 30 µM.

As to `Cc1cc(NC(=O)c2ccc(Cl)c(C(F)(F)C(=O)N3CC[C@@H](O)[C@H](O)C3)c2)ccc1F` (racemic) [Example 56, (±)-4-chloro-3-(2-(3,4-dihydroxypiperidin-1-yl)-1,1-difluoro-2-oxoethyl)-N-(4-fluoro-3-methylphenyl)benzamide], in data set [1], the EC50 was less than 5 µM. Further, the CC50 at 7 days in data set [2] was more than 30 µM.

As to `Cn1cc(C(=O)Nc2ccc(F)c(Cl)c2)cc1C(F)(F)C(=O)NCCO` [Example 138, N-(3-chloro-4-fluorophenyl)-5-(1,1-difluoro-2-((2-hydroxyethyl)amino)-2-oxoethyl)-1-methyl-1H-pyrrole-3-carboxamide], the EC50 in data set [1] was 5 to 30 µM. In addition, the half-maximal cytotoxic concentration (CC50) at 7 days in data set [2] is more than 30 µM.

Take `O=C(Nc1cc(F)c(F)c(F)c1)c1ccc(F)c(C(F)(F)C(=O)N2[C@@H]3CC[C@H]2C[C@H](O)C3)c1` [Example 188, 3-(1,1-difluoro-2-((1R,3s,5S)-3-hydroxy-8-azabicyclo[3.2.1]octan-8-yl)-2-oxoethyl)-4-fluoro-N-(3,4,5-trifluorophenyl)benzamide]: the 50% effective concentration (EC50) in data set [1] was less than 5 µM. Besides, in data set [2], the CC50 at 7 days lay within 5 to 30 µM.

In the case of `Cc1cc(NC(=O)c2ccc(F)c(C(F)(F)C(=O)N3CCOC[C@H]3C(=O)O)c2)ccc1F` [Example 237, (S)-4-(2,2-difluoro-2-(2-fluoro-5-((4-fluoro-3-methylphenyl)carbamoyl)phenyl)acetyl)morpholine-3-carboxylic acid], the EC50 in data set [1] was in the range of 5 to 30 µM. This molecule had a cytotoxic concentration (CC50) at 7 days in data set [2] of more than 30 µM.

Consider `N#Cc1cc(NC(=O)c2ccc(Cl)c(C(F)(F)C(=O)N3CCC(O)CC3)c2)ccc1F` [Example 33, 4-chloro-N-(3-cyano-4-fluorophenyl)-3-(1,1-difluoro-2-(4-hydroxypiperidin-1-yl)-2-oxoethyl)benzamide], for which the half-maximal effective concentration (EC50) in data set [1] was less than 5 µM. Besides, in data set [2], the 50% cytotoxic concentration (CC50) at 7 days is more than 30 µM.

`Cn1cc(C(=O)Nc2ccc(F)c(Cl)c2)cc1C(F)(F)C(=O)NOC(C)(C)C` [Example 144, 5-(2-(tert-butoxyamino)-1,1-difluoro-2-oxoethyl)-N-(3-chloro-4-fluorophenyl)-1-methyl-1H-pyrrole-3-carboxamide]: the 50% effective concentration (EC50) in data set [1] is less than 5 µM. Moreover, the CC50 at 7 days in data set [2] is more than 30 µM.

As to `Cc1cc(NC(=O)c2ccc(F)c(C(F)(F)C(=O)N3C4CCC3CC(O)C4)c2)ccc1F` [Example 78, 3-(1,1-difluoro-2-((1R,3r,5S)-3-hydroxy-8-azabicyclo[3.2.1]octan-8-yl)-2-oxoethyl)-4-fluoro-N-(4-fluoro-3-methylphenyl)benzamide], the 50% effective concentration (EC50) in data set [1] is less than 5 µM. The molecule further showed a CC50 at 7 days in data set [2] of 5 to 30 µM.

Usually EC50 stands for the midpoint of the concentration-response curve. For orientation: CC50 means the concentration that lowers cell viability or growth by half.
